# According to patent publication US10011568B2, “Cyclohexyl pyridine derivative” (priority 2014, dated 2018):
# What was measured:
# NK1 receptor = NK1 receptor (Meriones unguiculatus (Mongolian jird) (Gerbillus unguiculatus), UniProt Q5DUB1); assay: Effect on foot-tapping induced by NK1 receptor agonist GR73632; type: in vivo; settings: male gerbil, 0.1 mg/kg iv, GR73632 after four hours
# Experimental: (1) Effect on Foot-Tapping
# The test compound solution was prepared by dissolving the test compound in a vehicle (a mixture of 50% N,N-dimethylacetamide (Wako Pure Chemical Industries), 30% propylene glycol (Wako Pure Chemical Industries). 4% 2-hydroxypropyl-β-cyclodextrin (Wako Pure Chemical Industries) and 16% distilled water).
# (§1) A male gerbil (Japan SLC) was anesthetized with isoflurane, and 0.1 mg/kg of a test compound was administered from the jugular vein. After four hours. GR73632 (5 pmol/5 μl saline), which is an NK1 receptor agonist, was administered into the cerebral ventricle at the part 1 mm lateral to and 4.5 mm below the bregma in the head, under anesthesia with isoflurane. After the administration, the gerbil was moved to an observation cage, and the foot-tapping period during 30 minutes after the recovery of the righting reflex was measured. The foot-tapping inhibition rate (%) of each test compound was calculated by the following equation. Foot-tapping inhibition rate (%)−{1−(Fool-tapping period when test compound was administered)/(Foot-tapping period when solvent was administered)}×100 (2) Measurement of Drug Concentrations
# (§2) In the table, Ex. No. means the Example number. Inhibition (%) is the loot-tapping inhibition rate, and Cone. (nM) is the drug concentration in the brain.
# hERG channel = hERG channel (Homo sapiens (Human), UniProt Q12809); assay: Evaluation of hERG current (whole-cell patch clamp); type: cell-based; settings: 10 μM, application for 10 minutes, HEK293 cells, n = 3, average ± standard error
# Experimental: Evaluation of hERG Current
# A dimethyl sulfoxide (DMSO) solution of the test compound with a concentration 1000 times higher than the evaluation concentration (10 μM) was prepared, and a solution with a final application concentration was prepared by diluting the solution. The hERG current was measured by a whole-cell method using a patch clamp system, where a cover glass on which hERG channel-expressing human embryonic kidney (HEK) 293 cells were seeded was placed on a perfusion bath and a perfusion solution was caused to flow. The change in the hERG channel-derived current caused by a pulse protocol (holding potential of −80 mV, depolarization pulse of +20 mV for 1.9 seconds, repolarization pulse of −50 mV for 2 seconds, stimulated at intervals of 15 seconds) of data acquisition/analysis software, pCLAMP9 (Axon instruments. Inc.) was measured. The measurement conditions were a flow rate of about 1.5 mL/min and a temperature of about 33° C. Two wave forms immediately before applying the test compound and two wave forms immediately after the application for 10 minutes were analyzed, and the statistical analysis was performed. The value before the application of the test compound was regarded as 100%, and the change rate based on the value was determined.
# In the table, Ex. No. means the Example number, and the change rate is the average±the standard error.
# human NK1 receptor = human NK1 receptor (Homo sapiens (Human), UniProt P25103); assay: Affinity for human NK1 receptor (125I-substance P receptor binding test, membrane fraction); settings: membrane fraction of human NK1 receptor-expressing 293T cells; read-out: IC50 (nM), concentration required for 50% inhibition of 125I-substance P binding
# Experimental: Affinity for Human NK1 Receptor
# (3) Measurement of Binding Affinity to Human NK1 Receptor
# (3-1) Preparation of Membrane Fraction from Human NK1 Receptor-Expressing Cells
# Human NK1 receptor-expressing cells were prepared in a 175 cm^2 culture flask (Nippon Becton Dickinson). The formation of a complex of the human NK1 receptor expression plasmid and Lipofectamine 2000 was performed by calculating the culture area ratio and increasing the scale of the method described in the above 2-4 by the ratio. The human NK1 receptor-expressing cells were collected in a buffer solution for the membrane fraction preparation (50 mM Tris (Wako Pure Chemical), 120 mM sodium chloride (Wako Pure Chemical Industries), 5 mM potassium chloride (Wako Pure Chemical Industries), 1 mM ethylenediaminetetraacetic acid (Sigma), 0.002 mg/mL chymostatin (Peptide Institute), 0.04 mg/bacitracin (Wako Pure Chemical Industries), 0.005 mg/mL phosphoramidon (Peptide Institute) and 0.5 mM phenylmethylsulfonyl fluoride (Wako Pure Chemical Industries), pH7.4) and centrifuged at 1,880 g for 10 minutes, and the cell sediment was suspended in the buffer solution for the membrane fraction preparation. After freezing and thawing the cells once, the cells were homogenized using a Dounce-type homogenizer (cooled on ice, 1000 rpm, 20 times) The homogenized cell suspension was centrifuged at 20,000 rpm for 10 minutes, and the supernatant was removed to obtain cell sediment. The cell sediment was suspended again in the buffer solution for the membrane fraction preparation and homogenized using a Dounce-type homogenizer (cooled on ice, 1000 rpm, 30 times). The cell suspension was centrifuged at 20,000 rpm for 10 minutes, and the supernatant was removed to obtain cell sediment. The same homogenization and centrifugation were repeated again, and final cell sediment was obtained. The final cell sediment was suspended in a buffer solution for the receptor binding test (50 mM Tris (Wako Pure Chemical Industries). 3 mM manganese chloride (Wako Pure Chemical Industries), 0.002 mg/mL chymostatin (Peptide Institute), 0.04 mg/bacitracin (Wako Pure Chemical Industries) and 0.02% bovine serum albumin (Sigma), pH 7.4), and the protein concentration was measured using BCA Protein Assay Kit (Pierce).
# (3-2) Receptor Binding Test
# The buffer solution for the receptor binding test was dispensed to the wells of a 96-well assay plate (Greiner) at 22.5 μL/well. DMSO solutions of a test compound, which were prepared at an 80-time higher concentration using 100% dimethyl sulfoxide (DMSO), were added to the wells at 2.5 μL/well (final concentrations of 1 nM to 100 nM), and the solutions were mixed. As a radiolabeled ligand, ^125I-substance P (Substance P, [^125I]Tyr^8-, Perkin Elmer) was used. ^125I-substance P was diluted with the buffer solution for the receptor binding test to a concentration resulting in 125 pmol/25 μL/well and added to the 96-well assay plate, and the solutions were mixed. The membrane fraction prepared from the human NK1 receptor-expressing cells was diluted with the buffer solution for the receptor binding test to a concentration resulting in 8 to 10 μg/well, suspended until the suspension became in such a homogenous state that the suspension could flow through a 27G injection needle smoothly and then added to the 96-well assay plate at 150 μL/well. Then, the plate was incubated at room temperature for 60 minutes while shaking the plate. The reaction solutions were suction-filtered through a multiscreen 96-well filter plate (Millipore) which had been pre-treated with 0.3% polyethyleneimine, and the reaction was terminated by washing with a washing solution (50 mM Tris and 0.02% bovine serum albumin, pH 7.4) four times. The bottom of the microplate was dried at 60° C., and then 100 μL/well of MicroScint 20 (PerkinElmer) was dispensed to the wells. The top of the plate was sealed with TopSeal A (PerkinElmer), and the plate was shaken for 5 to 10 minutes. […]
# [1] = Measurement of drug concentrations in the brain after foot-tapping; type: in vivo; settings: male gerbil, 0.1 mg/kg iv, after foot-tapping was finished
# Experimental: as §1
# After foot-tapping was finished, laparotomy was performed immediately under anesthesia with ether, and a blood sample was taken from the abdominal vena cava. At the same lime, the brain was extracted. Through a quantitative analysis using liquid chromatography-mass spectrometry (LC/MS), the concentrations of the test compound in the plasma and the brain were measured.
# as §2
# NK1 receptor, sequence (Q5DUB1 whole entry): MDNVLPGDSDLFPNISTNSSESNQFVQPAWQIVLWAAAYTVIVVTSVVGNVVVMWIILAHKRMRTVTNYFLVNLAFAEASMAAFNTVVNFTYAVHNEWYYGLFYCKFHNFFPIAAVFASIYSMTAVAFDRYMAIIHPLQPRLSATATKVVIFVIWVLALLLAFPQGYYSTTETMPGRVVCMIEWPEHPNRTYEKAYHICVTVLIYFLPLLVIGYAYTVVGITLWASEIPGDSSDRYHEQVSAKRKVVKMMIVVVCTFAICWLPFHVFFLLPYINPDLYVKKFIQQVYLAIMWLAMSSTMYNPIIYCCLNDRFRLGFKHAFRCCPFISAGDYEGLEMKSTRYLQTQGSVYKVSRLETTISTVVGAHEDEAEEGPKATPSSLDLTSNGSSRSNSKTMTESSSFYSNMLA
# human NK1 receptor, sequence (P25103 whole entry): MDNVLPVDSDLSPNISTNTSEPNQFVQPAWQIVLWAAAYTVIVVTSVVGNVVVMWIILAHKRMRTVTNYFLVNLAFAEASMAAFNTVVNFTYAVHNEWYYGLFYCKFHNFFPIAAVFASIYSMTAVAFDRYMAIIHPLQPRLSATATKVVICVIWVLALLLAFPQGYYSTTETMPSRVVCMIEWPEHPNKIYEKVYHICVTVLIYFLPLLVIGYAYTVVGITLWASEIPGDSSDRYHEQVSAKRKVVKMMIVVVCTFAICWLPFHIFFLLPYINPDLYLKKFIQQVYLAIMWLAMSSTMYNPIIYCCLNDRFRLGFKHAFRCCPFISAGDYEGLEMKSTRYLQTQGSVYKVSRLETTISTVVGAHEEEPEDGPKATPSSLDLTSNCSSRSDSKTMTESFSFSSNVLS
# hERG channel, sequence (Q12809 whole entry): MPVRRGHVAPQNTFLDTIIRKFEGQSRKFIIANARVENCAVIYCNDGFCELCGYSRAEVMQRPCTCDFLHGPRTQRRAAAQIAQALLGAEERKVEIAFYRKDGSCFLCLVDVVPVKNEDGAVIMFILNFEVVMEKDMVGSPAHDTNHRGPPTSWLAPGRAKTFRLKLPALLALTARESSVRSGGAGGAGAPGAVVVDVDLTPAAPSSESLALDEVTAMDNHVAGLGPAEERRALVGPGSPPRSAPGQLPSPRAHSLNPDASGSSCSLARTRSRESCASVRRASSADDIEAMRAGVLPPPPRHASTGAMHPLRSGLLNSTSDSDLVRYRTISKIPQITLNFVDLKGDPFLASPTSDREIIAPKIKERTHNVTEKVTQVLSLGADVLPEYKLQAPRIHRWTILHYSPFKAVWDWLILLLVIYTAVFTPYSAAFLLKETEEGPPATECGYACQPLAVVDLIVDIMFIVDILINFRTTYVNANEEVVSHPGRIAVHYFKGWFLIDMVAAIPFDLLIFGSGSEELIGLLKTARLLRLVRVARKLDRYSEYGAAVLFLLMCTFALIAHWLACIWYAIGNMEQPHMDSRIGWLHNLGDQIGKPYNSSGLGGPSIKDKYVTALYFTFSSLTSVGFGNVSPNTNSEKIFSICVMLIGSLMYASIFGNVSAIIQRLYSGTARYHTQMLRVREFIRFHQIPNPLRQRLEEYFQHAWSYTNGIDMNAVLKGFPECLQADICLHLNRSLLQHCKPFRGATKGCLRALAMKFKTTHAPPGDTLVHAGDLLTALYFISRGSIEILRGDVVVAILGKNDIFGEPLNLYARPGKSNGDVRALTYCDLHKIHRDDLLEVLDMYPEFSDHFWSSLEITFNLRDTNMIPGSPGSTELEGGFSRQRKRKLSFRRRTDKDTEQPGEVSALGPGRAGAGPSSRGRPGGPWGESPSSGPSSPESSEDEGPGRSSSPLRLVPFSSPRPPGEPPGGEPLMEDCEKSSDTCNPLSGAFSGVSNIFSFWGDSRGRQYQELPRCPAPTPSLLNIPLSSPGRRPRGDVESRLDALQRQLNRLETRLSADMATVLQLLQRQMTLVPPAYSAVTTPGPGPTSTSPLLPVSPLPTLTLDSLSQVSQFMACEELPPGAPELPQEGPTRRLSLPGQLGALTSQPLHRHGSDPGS
smiles,measurement,setting,value
"Cc1cc(F)ccc1-c1cc([C@H]2CC[C@H](CC(=O)O)CC2)ncc1N(C)C(=O)C(C)(C)c1cc(C(F)(F)F)cc(C(F)(F)F)c1 [Example 13, trans-{4-[5-{[2-(3,5-Bistrifluoromethylphenyl)-2-methylpropionyl]methylamino}-4-(4-fluoro-2-methylphenyl)pyridin-2-yl]cyclohexyl}acetic acid]","Inhibition (%), foot-tapping inhibition rate",NK1 receptor,100%
same,hERG current change rate % (value before application = 100%),hERG channel,81.1 ± 5.6%
same,IC50,human NK1 receptor,1.62 nM
same,"Conc. (nM), drug concentration in the brain",[1],51 nM
"Cc1cc(F)ccc1-c1cc(C2CCC3(CC2)CC3C(=O)O)ncc1N(C)C(=O)C(C)(C)c1cc(C(F)(F)F)cc(C(F)(F)F)c1 (centres unmarked) [Example 7, 6-[5-{[2-(3,5-Bistrifluoromethylphenyl)-2-methylpropionyl]methylamino}-4-(4-fluoro-2-methylphenyl)pyridin-2-yl]spiro[2.5]octane-1-carboxylic Acid]","Inhibition (%), foot-tapping inhibition rate",NK1 receptor,90%
same,IC50,human NK1 receptor,1.63 nM
same,"Conc. (nM), drug concentration in the brain",[1],24 nM
"Cc1cc(F)ccc1-c1cc(C2(C)CCCC(CC(=O)O)C2)ncc1N(C)C(=O)C(C)(C)c1cc(C(F)(F)F)cc(C(F)(F)F)c1 (centres unmarked) [Example 4, {3-[5-{[2-(3,5-Bistrifluoromethylphenyl)-2-methylpropionyl]methylamino}-4-(4-fluoro-2-methylphenyl)pyridin-2-yl]-3-methylcyclohexyl}acetic Acid]","Inhibition (%), foot-tapping inhibition rate",NK1 receptor,77%
same,IC50,human NK1 receptor,2.35 nM
same,"Conc. (nM), drug concentration in the brain",[1],35 nM
"Cc1cc(F)ccc1-c1cc([C@H]2CC[C@@H](CC(=O)O)CC2)ncc1N(C)C(=O)C(C)(C)c1cc(C(F)(F)F)cc(C(F)(F)F)c1 [Example 14, cis-{4-[5-{[2-(3,5-bistrifluoromethylphenyl)-2-methylpropionyl]methylamino}-4-(4-fluoro-2-methylphenyl)pyridin-2-yl]cyclohexyl}acetic acid]","Inhibition (%), foot-tapping inhibition rate",NK1 receptor,99%
same,hERG current change rate % (value before application = 100%),hERG channel,80.3 ± 3.9%
same,IC50,human NK1 receptor,2.21 nM
same,"Conc. (nM), drug concentration in the brain",[1],40 nM
"Cc1cc(F)ccc1-c1cc([C@H]2CC[C@@H](CC(=O)O)CC2)nc(C#N)c1N(C)C(=O)C(C)(C)c1cc(C(F)(F)F)cc(C(F)(F)F)c1 [Example 21, cis-{4-[5-{[2-(3,5-bistrifluoromethylphenyl)-2-methylpropionyl]methylamino}-6-cyano-4-(4-fluoro-2-methylphenyl)pyridin-2-yl]cyclohexyl}acetic acid]","Inhibition (%), foot-tapping inhibition rate",NK1 receptor,100%
same,IC50,human NK1 receptor,2.36 nM
same,"Conc. (nM), drug concentration in the brain",[1],92 nM
